Molecular target: T1, human HSL (Homo sapiens, UniProt Q05469)
T1 construct: generate a full length human HSL ORF with a 3′-His6 tag; made in house; host or cells: High 5 insect cells (baculovirus, pFast-BAC)
T1 sequence (Q05469 1-1076): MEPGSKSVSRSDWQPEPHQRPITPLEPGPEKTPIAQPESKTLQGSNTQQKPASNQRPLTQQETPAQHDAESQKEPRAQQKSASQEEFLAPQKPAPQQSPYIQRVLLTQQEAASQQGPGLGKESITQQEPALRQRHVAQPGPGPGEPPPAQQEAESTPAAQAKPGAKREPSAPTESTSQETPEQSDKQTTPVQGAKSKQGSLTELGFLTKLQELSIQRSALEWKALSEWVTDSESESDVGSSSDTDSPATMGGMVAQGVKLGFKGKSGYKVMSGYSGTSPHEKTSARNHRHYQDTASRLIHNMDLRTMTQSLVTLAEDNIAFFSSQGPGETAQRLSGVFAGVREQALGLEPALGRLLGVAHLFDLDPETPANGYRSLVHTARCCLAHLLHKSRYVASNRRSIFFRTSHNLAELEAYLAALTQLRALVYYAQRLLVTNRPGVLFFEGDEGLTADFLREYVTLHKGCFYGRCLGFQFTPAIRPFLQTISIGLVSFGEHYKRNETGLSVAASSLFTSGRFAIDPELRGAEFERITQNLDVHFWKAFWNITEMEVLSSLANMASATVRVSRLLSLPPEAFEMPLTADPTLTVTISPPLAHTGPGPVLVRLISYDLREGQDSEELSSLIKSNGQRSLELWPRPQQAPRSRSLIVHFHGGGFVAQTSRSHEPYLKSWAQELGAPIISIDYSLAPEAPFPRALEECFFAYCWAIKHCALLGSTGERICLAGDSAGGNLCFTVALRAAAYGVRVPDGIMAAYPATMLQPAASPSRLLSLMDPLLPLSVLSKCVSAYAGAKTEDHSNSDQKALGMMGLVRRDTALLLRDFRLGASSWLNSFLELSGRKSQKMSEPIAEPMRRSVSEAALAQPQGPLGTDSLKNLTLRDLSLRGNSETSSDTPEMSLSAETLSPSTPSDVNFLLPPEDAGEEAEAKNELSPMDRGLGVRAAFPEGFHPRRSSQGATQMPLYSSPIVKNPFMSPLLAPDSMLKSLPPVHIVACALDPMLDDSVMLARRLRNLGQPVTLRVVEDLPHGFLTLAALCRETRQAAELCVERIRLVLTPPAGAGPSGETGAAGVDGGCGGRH
Experiment: Human Hormone-Sensitive Lipase (HSL) enzyme inhibition assay (colorimetric, DMPT substrate)
Type: biochemical
Conditions: human full length HSL-His6, 2,3-dimercapto-1-propanol tributyrate substrate, 37° C. 20 minutes, absorbance at 405 nm; read-out: HSL hum IC50
Summary of the method: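 Full-length human HSL with C-terminal His6, expressed in baculovirus-infected High 5 cells and Ni-NTA purified, was added (15 ug/ml stock) to 1.5 mM DMPT in 100 mM MOPS pH 7.2, 0.2 mg/ml fatty acid-free BSA containing compound. After 20 min at 37 °C, DTNB with SDS/Triton X-100 was added; A405 read after 15 min at RT.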

IC50 [nM]	Compound
20	CSC[C@]1(O)CC[C@]2(CCN(c3ccc(OCC(F)(F)F)cc3)C2=O)CC1 [Example 293, (5α,8α)-8-Hydroxy-8-methylsulfanylmethyl-2-[4-(2,2,2-trifluoro-ethoxy)-phenyl]-2-aza-spiro[4.5]decan-1-one]
20	CCCSC[C@]1(O)CC[C@]2(CCN(c3ccc(OCC(F)(F)F)cc3)C2=O)CC1 [Example 294, (5α,8α)-8-Hydroxy-8-propylsulfanylmethyl-2-[4-(2,2,2-trifluoro-ethoxy)-phenyl]-2-aza-spiro[4.5]decan-1-one]
40	O=C1N(c2ccc(OCC(F)(F)F)nc2)CC[C@]12CC[C@@](O)(COCC(F)F)CC2 [Example 295, (5α,8α)-8-(2,2-Difluoro-ethoxymethyl)-8-hydroxy-2-[6-(2,2,2-trifluoro-ethoxy)-pyridin-3-yl]-2-aza-spiro[4.5]decan-1-one]
550	C[C@H](Oc1ccc(N2CC[C@]3(CC[C@](O)(COCC(F)F)CC3)C2=O)cn1)C(F)(F)F [Example 296, (5α,8β)-8-(2,2-Difluoro-ethoxymethyl)-8-hydroxy-2-[6-((S)-2,2,2-trifluoro-1-methyl-ethoxy)-pyridin-3-yl]-2-aza-spiro[4.5]decan-1-one]
20	C[C@H](Oc1ccc(N2CC[C@]3(CC[C@@](O)(COCC(F)F)CC3)C2=O)cn1)C(F)(F)F [Example 297, (5α,8α)-8-(2,2-Difluoro-ethoxymethyl)-8-hydroxy-2-[6-((S)-2,2,2-trifluoro-1-methyl-ethoxy)-pyridin-3-yl]-2-aza-spiro[4.5]decan-1-one]
590	C[C@H](Oc1ccc(N2CC[C@]3(CC[C@](O)(COCC(F)F)CC3)C2=O)cc1)C(F)(F)F [Example 298, (5α,8β)-8-(2,2-Difluoro-ethoxymethyl)-8-hydroxy-2-[4-((S)-2,2,2-trifluoro-1-methyl-ethoxy)-phenyl]-2-aza-spiro[4.5]decan-1-one]
10	C[C@H](Oc1ccc(N2CC[C@]3(CC[C@@](O)(COCC(F)F)CC3)C2=O)cc1)C(F)(F)F [Example 299, (5α,8α)-8-(2,2-Difluoro-ethoxymethyl)-8-hydroxy-2-[4-((S)-2,2,2-trifluoro-1-methyl-ethoxy)-phenyl]-2-aza-spiro[4.5]decan-1-one]
300	C[C@@H](Oc1ccc(N2CC[C@]3(CC[C@](O)(COCC(F)F)CC3)C2=O)cc1)C(F)(F)F [Example 300, (5α,8β)-8-(2,2-Difluoro-ethoxymethyl)-8-hydroxy-2-[4-((R)-2,2,2-trifluoro-1-methyl-ethoxy)-phenyl]-2-aza-spiro[4.5]decan-1-one]
10	C[C@@H](Oc1ccc(N2CC[C@]3(CC[C@@](O)(COCC(F)F)CC3)C2=O)cc1)C(F)(F)F [Example 301, (5α,8α)-8-(2,2-Difluoro-ethoxymethyl)-8-hydroxy-2-[4-((R)-2,2,2-trifluoro-1-methyl-ethoxy)-phenyl]-2-aza-spiro[4.5]decan-1-one]
510	O=C1N(c2ccc(CC(F)(F)F)cc2)CC[C@]12CC[C@](O)(COCC(F)F)CC2 [Example 302, (5α,8β)-8-(2,2-Difluoro-ethoxymethyl)-8-hydroxy-2-[4-(2,2,2-trifluoro-ethyl)-phenyl]-2-aza-spiro[4.5]decan-1-one]
10	O=C1N(c2ccc(CC(F)(F)F)cc2)CC[C@]12CC[C@@](O)(COCC(F)F)CC2 [Example 303, (5α,8α)-8-(2,2-Difluoro-ethoxymethyl)-8-hydroxy-2-[4-(2,2,2-trifluoro-ethyl)-phenyl]-2-aza-spiro[4.5]decan-1-one]
330	CS(=O)(=O)C[C@]1(O)CC[C@]2(CCN(c3ccc(OCC(F)(F)F)cc3)C2=O)CC1 [Example 304, (5α,8α)-8-Hydroxy-8-methanesulfonylmethyl-2-[4-(2,2,2-trifluoro-ethoxy)-phenyl]-2-aza-spiro[4.5]decan-1-one]
30	CCCS(=O)(=O)C[C@]1(O)CC[C@]2(CCN(c3ccc(OCC(F)(F)F)cc3)C2=O)CC1 [Example 305, (5α,8α)-8-Hydroxy-8-(propane-1-sulfonylmethyl)-2-[4-(2,2,2-trifluoro-ethoxy)-phenyl]-2-aza-spiro[4.5]decan-1-one]
10	CC(C)SC[C@]1(O)CC[C@]2(CCN(c3ccc(OCC(F)(F)F)cc3)C2=O)CC1 [Example 306, (5α,8α)-8-Hydroxy-8-isopropylsulfanylmethyl-2-[4-(2,2,2-trifluoro-ethoxy)-phenyl]-2-aza-spiro[4.5]decan-1-one]
200	CC(C)OC[C@]1(O)CC[C@@]2(CCN(c3ccc(O[C@@H](C)C(F)(F)F)cc3)C2=O)CC1 [Example 307, (5α,8β)-8-Hydroxy-8-isopropoxymethyl-2-[4-((S)-2,2,2-trifluoro-1-methyl-ethoxy)-phenyl]-2-aza-spiro[4.5]decan-1-one]
10	CC(C)OC[C@]1(O)CC[C@]2(CCN(c3ccc(O[C@@H](C)C(F)(F)F)cc3)C2=O)CC1 [Example 308, (5α,8α)-8-Hydroxy-8-isopropoxymethyl-2-[4-((S)-2,2,2-trifluoro-1-methyl-ethoxy)-phenyl]-2-aza-spiro[4.5]decan-1-one]
10	CC(C)OC[C@]1(O)CC[C@]2(CCN(c3ccc(O[C@@H](C)C(F)(F)F)nc3)C2=O)CC1 [Example 309, (5α,8α)-8-Hydroxy-8-isopropoxymethyl-2-[6-((S)-2,2,2-trifluoro-1-methyl-ethoxy)-pyridin-3-yl]-2-aza-spiro[4.5]decan-1-one]
10	CC(C)OC[C@]1(O)CC[C@]2(CCN(c3ccc(O[C@H](C)C(F)(F)F)cc3)C2=O)CC1 [Example 310, (5α,8α)-8-Hydroxy-8-isopropoxymethyl-2-[4-((R)-2,2,2-trifluoro-1-methyl-ethoxy)-phenyl]-2-aza-spiro[4.5]decan-1-one]
30	CCOC[C@]1(O)CC[C@]2(CCN(c3ccc(O[C@H](C)C(F)(F)F)nc3)C2=O)CC1 [Example 311, (5α,8α)-8-Ethoxymethyl-8-hydroxy-2-[6-((R)-2,2,2-trifluoro-1-methyl-ethoxy)-pyridin-3-yl]-2-aza-spiro[4.5]decan-1-one]
10	CCCOC[C@]1(O)CC[C@]2(CCN(c3ccc(O[C@H](C)C(F)(F)F)nc3)C2=O)CC1 [Example 312, (5α,8α)-8-Hydroxy-8-propoxymethyl-2-[6-((R)-2,2,2-trifluoro-1-methyl-ethoxy)-pyridin-3-yl]-2-aza-spiro[4.5]decan-1-one]
280	C[C@@H](Oc1ccc(N2CC[C@]3(CC[C@](O)(COCC(F)F)CC3)C2=O)cn1)C(F)(F)F [Example 313, (5α,8β)-8-(2,2-Difluoro-ethoxymethyl)-8-hydroxy-2-[6-((R)-2,2,2-trifluoro-1-methyl-ethoxy)-pyridin-3-yl]-2-aza-spiro[4.5]decan-1-one]
20	C[C@@H](Oc1ccc(N2CC[C@]3(CC[C@@](O)(COCC(F)F)CC3)C2=O)cn1)C(F)(F)F [Example 314, (5α,8α)-8-(2,2-Difluoro-ethoxymethyl)-8-hydroxy-2-[6-((R)-2,2,2-trifluoro-1-methyl-ethoxy)-pyridin-3-yl]-2-aza-spiro[4.5]decan-1-one]
180	CC(C)OC[C@]1(O)CC[C@@]2(CCN(c3ccc(O[C@H](C)C(F)(F)F)nc3)C2=O)CC1 [Example 315, (5α,8β)-8-Hydroxy-8-isopropoxymethyl-2-[6-((R)-2,2,2-trifluoro-1-methyl-ethoxy)-pyridin-3-yl]-2-aza-spiro[4.5]decan-1-one]
20	CC(C)OC[C@]1(O)CC[C@]2(CCN(c3ccc(O[C@H](C)C(F)(F)F)nc3)C2=O)CC1 [Example 316, (5α,8α)-8-Hydroxy-8-isopropoxymethyl-2-[6-((R)-2,2,2-trifluoro-1-methyl-ethoxy)-pyridin-3-yl]-2-aza-spiro[4.5]decan-1-one]
200	CC(C)[S+]([O-])C[C@]1(O)CC[C@]2(CCN(c3ccc(OCC(F)(F)F)cc3)C2=O)CC1 (stereo partly drawn) [Example 317, (5α,8α)-8-Hydroxy-8-(propane-2-sulfinylmethyl)-2-[4-(2,2,2-trifluoro-ethoxy)-phenyl]-2-aza-spiro[4.5]decan-1-one]
